How the values were obtained:
[1] = target: topoisomerase (DNA) II alpha (TOP2A) (Homo sapiens, UniProt P11388); experiment: surface plasmon resonance; assay type: binding
PARP1 = PARP1 (Homo sapiens, UniProt P09874); experiment: surface plasmon resonance; assay type: binding
Sequence of PARP1 (P09874 2-1014): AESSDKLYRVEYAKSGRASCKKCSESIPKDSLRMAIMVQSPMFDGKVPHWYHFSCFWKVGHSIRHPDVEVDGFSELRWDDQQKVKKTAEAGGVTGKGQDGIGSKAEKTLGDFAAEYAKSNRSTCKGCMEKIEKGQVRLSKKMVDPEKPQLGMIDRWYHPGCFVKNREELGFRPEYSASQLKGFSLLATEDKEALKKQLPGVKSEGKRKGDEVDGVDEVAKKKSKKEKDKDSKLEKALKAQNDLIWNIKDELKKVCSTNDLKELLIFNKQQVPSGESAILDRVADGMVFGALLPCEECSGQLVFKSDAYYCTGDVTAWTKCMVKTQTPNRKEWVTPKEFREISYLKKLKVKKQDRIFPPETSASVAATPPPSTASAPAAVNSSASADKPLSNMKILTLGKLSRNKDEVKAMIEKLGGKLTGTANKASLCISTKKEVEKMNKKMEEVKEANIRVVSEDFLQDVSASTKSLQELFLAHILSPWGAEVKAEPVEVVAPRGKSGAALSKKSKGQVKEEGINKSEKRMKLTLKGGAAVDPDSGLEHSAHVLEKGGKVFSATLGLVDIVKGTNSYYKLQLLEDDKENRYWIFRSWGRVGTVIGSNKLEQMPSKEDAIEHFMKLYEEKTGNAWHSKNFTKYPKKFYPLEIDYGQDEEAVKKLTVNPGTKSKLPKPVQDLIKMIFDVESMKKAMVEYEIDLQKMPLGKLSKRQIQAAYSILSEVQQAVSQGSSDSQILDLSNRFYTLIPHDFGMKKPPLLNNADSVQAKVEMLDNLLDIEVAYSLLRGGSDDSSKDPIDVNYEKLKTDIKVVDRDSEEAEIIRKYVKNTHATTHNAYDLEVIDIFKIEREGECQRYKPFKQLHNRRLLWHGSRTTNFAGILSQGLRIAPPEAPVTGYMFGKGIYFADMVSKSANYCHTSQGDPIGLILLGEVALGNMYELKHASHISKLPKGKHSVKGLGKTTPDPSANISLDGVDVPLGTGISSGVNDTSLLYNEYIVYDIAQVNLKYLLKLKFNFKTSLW

Sequence of topoisomerase (DNA) II alpha (TOP2A) (P11388 whole entry): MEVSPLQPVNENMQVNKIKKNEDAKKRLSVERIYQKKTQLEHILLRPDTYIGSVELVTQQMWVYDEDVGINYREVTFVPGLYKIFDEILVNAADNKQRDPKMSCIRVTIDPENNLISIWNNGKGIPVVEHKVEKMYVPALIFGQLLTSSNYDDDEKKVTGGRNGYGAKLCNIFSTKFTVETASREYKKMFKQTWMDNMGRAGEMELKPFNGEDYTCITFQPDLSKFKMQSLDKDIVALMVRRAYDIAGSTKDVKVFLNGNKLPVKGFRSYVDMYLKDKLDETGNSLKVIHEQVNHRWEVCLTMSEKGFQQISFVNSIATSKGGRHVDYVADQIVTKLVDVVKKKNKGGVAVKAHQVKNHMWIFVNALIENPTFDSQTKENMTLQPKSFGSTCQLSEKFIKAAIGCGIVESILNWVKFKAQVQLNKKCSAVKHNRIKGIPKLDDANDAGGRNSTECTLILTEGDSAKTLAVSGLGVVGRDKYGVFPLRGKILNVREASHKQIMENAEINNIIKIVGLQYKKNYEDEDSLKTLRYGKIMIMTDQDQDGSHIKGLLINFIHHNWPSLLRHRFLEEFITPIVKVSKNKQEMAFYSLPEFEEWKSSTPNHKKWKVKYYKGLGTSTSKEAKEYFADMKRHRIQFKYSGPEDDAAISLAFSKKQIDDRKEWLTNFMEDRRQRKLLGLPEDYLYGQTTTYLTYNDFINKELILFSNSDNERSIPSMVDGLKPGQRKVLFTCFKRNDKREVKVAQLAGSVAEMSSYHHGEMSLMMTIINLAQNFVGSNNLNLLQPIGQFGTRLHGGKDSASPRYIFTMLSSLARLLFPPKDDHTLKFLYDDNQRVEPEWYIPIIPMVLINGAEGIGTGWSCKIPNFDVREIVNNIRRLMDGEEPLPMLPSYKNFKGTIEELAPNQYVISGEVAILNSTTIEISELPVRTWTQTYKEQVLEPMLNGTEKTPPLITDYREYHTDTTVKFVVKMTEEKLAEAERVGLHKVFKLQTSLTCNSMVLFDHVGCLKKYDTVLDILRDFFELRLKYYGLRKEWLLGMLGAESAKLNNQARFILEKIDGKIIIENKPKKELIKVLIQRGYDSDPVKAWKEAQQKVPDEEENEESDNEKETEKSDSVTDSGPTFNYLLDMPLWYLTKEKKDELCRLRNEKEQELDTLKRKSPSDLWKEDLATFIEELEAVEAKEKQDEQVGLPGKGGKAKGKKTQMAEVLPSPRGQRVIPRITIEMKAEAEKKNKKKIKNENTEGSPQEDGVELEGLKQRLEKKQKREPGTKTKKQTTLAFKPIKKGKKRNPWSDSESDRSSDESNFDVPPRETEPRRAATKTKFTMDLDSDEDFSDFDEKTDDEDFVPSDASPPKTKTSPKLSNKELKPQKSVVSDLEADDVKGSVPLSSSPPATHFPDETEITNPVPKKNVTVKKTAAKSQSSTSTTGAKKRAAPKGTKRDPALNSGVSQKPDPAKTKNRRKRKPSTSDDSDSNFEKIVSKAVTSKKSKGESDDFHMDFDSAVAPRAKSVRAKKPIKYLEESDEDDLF

## Olaparib-TCO
[1]
  Kd: ~3.7 nM
PARP1
  Kd: 22 nM

Source: PMC3856564 (Angewandte Chemie (International ed. in English), 2013)
